In general, IC50 refers to the concentration needed to halve the response being measured. Usually Ki stands for a dissociation constant, usually derived from enzyme kinetics or from competition with a known ligand.

Structures are written as SMILES.

This passage reports IC50 and Ki results from ChEMBL document CHEMBL4715808, “Discovery of (1S,2R,3S,4S,5R,6R)-2-Amino-3-[(3,4-difluorophenyl)sulfanylmethyl]-4-hydroxy-bicyclo[3.1.0]hexane-2,6-dicarboxylic Acid Hydrochloride (LY3020371·HCl): A Potent, Metabotropic Glutamate 2/3 Receptor Antagonist with Antidepressant-Like Activity” (J Med Chem, 2016).

The target in test [1] is T1, Metabotropic glutamate receptor 2 (Homo sapiens, UniProt Q14416). Description: […] at mGlu2 (unknown origin).
Test [2] deals with T2, Metabotropic glutamate receptor 3 (Homo sapiens, UniProt Q14832). Put plainly: Antagonist activity at human recombinant mGlu3 receptor stably expressed in golden hamster AV12 cells co-expressing rat EAAT1 assessed as reduction in DCG IV-induced inhibition of forskolin-stimulated cAMP accumulation preincubated for 20 mins followed by incubation with cAMP-d2 conjugate and anti-cAMP cryptate for 1 hr by HTRF assay. The class given is functional, cell-based. On the technique in general: Cyclic AMP is a second messenger, typically raised through Gs and lowered through Gi signalling.

In test [3] the target is T1, Metabotropic glutamate receptor 2.
Description: Displacement of [3H]-LY459477 from recombinant human mGlu2 receptor expressed in hamster AV12 cell membranes co-expressing rat EAAT1 incubated for 90 mins by top count scintillation method
The target in test [4] is T2, Metabotropic glutamate receptor 3. Put plainly: Displacement of [3H]-LY459477 from recombinant human mGlu3 receptor expressed in hamster AV12 cell membranes co-expressing rat EAAT1 incubated for 90 mins by top count scintillation method. The arrangement: species or system Cell membrane. (Loss of bound radioactivity is the signal in a displacement assay; it reports binding, not function.)

For test [5], the target named is T1, Metabotropic glutamate receptor 2. This is another data set of the same source.
Description: Antagonist activity at human recombinant mGlu2 receptor stably expressed in golden hamster AV12 cells co-expressing rat EAAT1 assessed as reduction in DCG IV-induced inhibition of forskolin-stimulated cAMP accumulation preincubated for 20 mins followed by incubation with cAMP-d2 conjugate and anti-cAMP cryptate for 1 hr by HTRF assay
Test [6] addresses T2, Metabotropic glutamate receptor 3. Description: […] at mGlu3 (unknown origin).

T2 sequence (Q14832 whole entry): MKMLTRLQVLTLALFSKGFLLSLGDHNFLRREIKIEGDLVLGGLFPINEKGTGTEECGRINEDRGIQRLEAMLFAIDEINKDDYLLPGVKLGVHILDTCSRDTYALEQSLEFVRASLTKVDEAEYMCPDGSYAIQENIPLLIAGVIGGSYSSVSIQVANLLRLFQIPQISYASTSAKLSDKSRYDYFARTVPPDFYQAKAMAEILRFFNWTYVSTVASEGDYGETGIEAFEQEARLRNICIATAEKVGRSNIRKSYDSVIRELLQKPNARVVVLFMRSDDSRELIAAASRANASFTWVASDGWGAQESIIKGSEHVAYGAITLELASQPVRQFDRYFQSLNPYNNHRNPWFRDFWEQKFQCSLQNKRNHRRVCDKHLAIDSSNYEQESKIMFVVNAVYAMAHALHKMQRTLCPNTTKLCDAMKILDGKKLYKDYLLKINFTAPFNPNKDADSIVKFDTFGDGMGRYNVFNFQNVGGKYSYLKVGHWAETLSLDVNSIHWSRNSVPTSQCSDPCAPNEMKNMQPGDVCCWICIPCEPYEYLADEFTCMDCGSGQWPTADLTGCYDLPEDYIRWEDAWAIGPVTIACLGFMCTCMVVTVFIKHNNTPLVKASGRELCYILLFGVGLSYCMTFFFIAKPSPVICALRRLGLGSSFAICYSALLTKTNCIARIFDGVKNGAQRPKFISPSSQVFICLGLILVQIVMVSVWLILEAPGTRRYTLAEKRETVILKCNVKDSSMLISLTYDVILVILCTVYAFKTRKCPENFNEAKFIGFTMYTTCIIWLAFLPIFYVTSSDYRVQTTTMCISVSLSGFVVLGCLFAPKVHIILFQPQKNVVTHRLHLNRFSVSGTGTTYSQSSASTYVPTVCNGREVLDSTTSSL
T1 sequence (Q14416 whole entry): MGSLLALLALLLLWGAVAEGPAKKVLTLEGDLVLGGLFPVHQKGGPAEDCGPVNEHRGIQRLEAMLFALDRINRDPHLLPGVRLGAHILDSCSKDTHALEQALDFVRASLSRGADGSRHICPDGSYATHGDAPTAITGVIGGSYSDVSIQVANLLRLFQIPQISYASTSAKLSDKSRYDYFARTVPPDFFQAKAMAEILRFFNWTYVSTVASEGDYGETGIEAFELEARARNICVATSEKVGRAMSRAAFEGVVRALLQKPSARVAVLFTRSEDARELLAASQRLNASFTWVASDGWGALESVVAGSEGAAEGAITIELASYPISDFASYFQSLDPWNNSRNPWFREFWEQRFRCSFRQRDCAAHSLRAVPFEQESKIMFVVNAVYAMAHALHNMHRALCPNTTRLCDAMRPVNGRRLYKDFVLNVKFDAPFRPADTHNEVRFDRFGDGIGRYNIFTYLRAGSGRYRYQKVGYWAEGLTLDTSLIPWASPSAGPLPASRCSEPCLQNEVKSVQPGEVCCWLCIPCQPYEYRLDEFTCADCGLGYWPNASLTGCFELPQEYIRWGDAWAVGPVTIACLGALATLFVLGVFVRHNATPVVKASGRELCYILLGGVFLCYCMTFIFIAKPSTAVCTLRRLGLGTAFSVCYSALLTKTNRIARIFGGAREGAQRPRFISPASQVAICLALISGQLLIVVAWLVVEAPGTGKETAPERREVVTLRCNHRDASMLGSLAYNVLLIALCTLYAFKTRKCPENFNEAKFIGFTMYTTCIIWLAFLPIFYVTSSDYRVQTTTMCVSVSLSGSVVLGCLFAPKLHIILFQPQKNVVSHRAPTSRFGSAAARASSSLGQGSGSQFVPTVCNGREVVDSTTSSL

`N[C@@]1(C(=O)O)C[C@@H](O)[C@H]2[C@H](C(=O)O)[C@H]21` had an IC50 in test [1] of 8.6 nM.

Compound `N[C@@]1(C(=O)O)C[C@H](O)[C@H]2[C@H](C(=O)O)[C@H]21` registered an IC50 in test [1] of 22.6 nM.

As to `N[C@@]1(C(=O)O)[C@H](Cc2ccc(F)c(Cl)c2)C[C@H]2[C@H](C(=O)O)[C@H]21`, the IC50 in test [2] amounted to 110 nM.

Take `CC(=O)N[C@H]1[C@H]2[C@H](C(=O)O)[C@H]2[C@](N)(C(=O)O)[C@@H]1CSc1ccc(F)c(C)c1`: the Ki in test [3] stood at 9.2 nM; in test [4], 7.7 nM. The values for the IC50 in test [2] and in test [5] were 12.4 nM and 26.2 nM, respectively.

In the case of `N[C@]1(C(=O)O)[C@@H]2[C@@H](C(=O)O)[C@@H]2[C@H](O)[C@H]1CSc1ccc(Cl)c(Cl)c1`, the Ki in test [3] worked out at 8.4 nM; in test [4], 9.4 nM. In addition, the IC50 is 56.5 nM in test [2] and 9.8 nM in test [5].

As to `CC(C)SC[C@@H]1[C@@H](O)[C@H]2[C@H](C(=O)O)[C@H]2[C@]1(N)C(=O)O`, the affinity in test [3], expressed as Ki, was 1200 nM. The same compound had an IC50 in test [5] of 2280 nM.

For the compound `N[C@]1(C(=O)O)[C@@H]2[C@@H](C(=O)O)[C@@H]2[C@H](O)[C@H]1CSc1ccccc1F`, the Ki in test [3] came out at 728 nM; in test [4], 369 nM. The IC50 is 967 nM in test [2] and 1440 nM in test [5].

In the case of `Cc1cc(SC[C@@H]2[C@@H](N)[C@H]3[C@H](C(=O)O)[C@H]3[C@]2(N)C(=O)O)ccc1F`, the Ki came to 24 nM in test [3] and 36.1 nM in test [4]. The values for the IC50 in test [2] and in test [5] were 163 nM and 45.4 nM, respectively.

As for `Cc1ccc(SC[C@@H]2[C@@H](O)[C@H]3[C@H](C(=O)O)[C@H]3[C@]2(N)C(=O)O)cc1C`, the Ki in test [3] turned out to be 14.2 nM. The IC50 in test [5] is 27.6 nM.

Turning to `N[C@]1(C(=O)O)[C@@H]2[C@@H](C(=O)O)[C@@H]2[C@H](O)[C@H]1CSc1ccccc1`, in test [2], the IC50 was 202 nM. Besides, the Ki in test [4] was 19.2 nM.

Take `Cc1cc(SC[C@@H]2[C@@H](Sc3nc[nH]n3)[C@H]3[C@H](C(=O)O)[C@H]3[C@]2(N)C(=O)O)ccc1F`: the inhibitory constant (Ki) in test [3] was 5.2 nM. In test [5], this compound returned an IC50 of 6.6 nM.

With `N[C@]1(C(=O)O)[C@@H]2[C@@H](C(=O)O)[C@@H]2[C@H](O)[C@H]1CSCc1ccc(Cl)c(Cl)c1`, the Ki in test [3] came to 20.5 nM; in test [4] it was 16.3 nM. Moreover, the IC50 in test [2] was determined as 62.3 nM; in test [5], 49.4 nM.

Consider `N[C@]1(C(=O)O)[C@@H]2[C@@H](C(=O)O)[C@@H]2[C@H](O)[C@H]1CSc1ccc(F)cc1`, for which the inhibition constant (Ki) came to 10.4 nM in test [3] and 6.8 nM in test [4]. Further, the IC50 was determined as 41.9 nM in test [2] and 20.2 nM in test [5].

As for `N[C@]1(C(=O)O)[C@@H]2[C@@H](C(=O)O)[C@@H]2[C@H](O)[C@@H]1CSc1ccccc1`, the half-inhibitory concentration (IC50) in test [2] was 2410 nM. Further, the Ki in test [4] was 251 nM.

Take `N[C@]1(C(=O)O)[C@@H]2[C@@H](C(=O)O)[C@@H]2[C@@H](O)[C@@H]1CSc1ccccc1`: the IC50 in test [2] was found to be 2160 nM. Also, the Ki in test [4] was determined as 238 nM.

Turning to `Cc1cc(SC[C@@H]2[C@@H](O)[C@H]3[C@H](C(=O)O)[C@H]3[C@]2(N)C(=O)O)ccc1F`, the affinity in test [3], expressed as Ki, was 8.9 nM. In test [5], this compound gave an IC50 of 17.2 nM.

For the compound `N[C@]1(C(=O)O)[C@@H]2[C@@H](C(=O)O)[C@@H]2[C@@H](O)[C@H]1CSc1ccccc1`, the IC50 in test [2] was found to be 547 nM. In addition, the Ki in test [4] was 26 nM.

Take `N[C@]1(C(=O)O)[C@@H]2[C@@H](C(=O)O)[C@@H]2[C@H](O)[C@H]1CSc1cccc(F)c1`: the Ki in test [3] amounted to 43.7 nM; in test [4], 25.1 nM. In addition, the IC50 in test [2] worked out at 272 nM; in test [5] it was 76.2 nM.

With `N[C@@]1(C(=O)O)CC[C@H]2[C@H](C(=O)O)[C@H]21`, the IC50 came to 27.9 nM in test [6] and 7 nM in test [1].
